In brackets after ≈: the same amount, converted by molar mass.
What was measured:
hTRPV3 [1] = target: T1, hTRPV3 (Homo sapiens (Human), UniProt Q8NET8); test: hTRPV3 HAMA IC50 assay (Hamamatsu FDSS6000 calcium flux, TRex-293 cells)
Method: IC50s were calculated using CBIS from ChemInnovation (San Diego).

[2] = Aqueous solubility assay in Normal Ringer Solution; details: Normal Ringer Solution; for Solubility Ringer (nM): room temperature; for solubility at 40 min: saline or isotonic, kinetic from dmso stock
Method: Following vortex and incubation for a sufficient time (e.g. 40 minutes at room temperature), solutions were filtered, quenched with acetonitrile, and analyzed by Liquid Chromotography. Solubility Limits were determined by comparison to a standard curve.

hTRPV3 [3] = target: T1, hTRPV3; test: Whole-cell patch clamp, hTRPV3 Phase 1 / Phase 2 currents; format: cell-based
Outline: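 Whole-cell recordings on induced TRPV3 cells replated on coverslips, held at −40 mV with 400 ms ramps from −120 to +100 mV every 5 s; currents read at −80 and +80 mV. Ringer's external solution; current activated by heating to ≥28 °C or 20 μM 2-APB.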

[4] = Metabolic Stability assay, rat liver microsomes; format: in vitro ADME; details: for half-life at 1 μM: read-out: LM T1/2 (min) (rat)
Outline: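 Test article at 1 μM starting concentration incubated with human or rat liver microsomes at 37 °C, with the reaction started by NADPH regeneration components. Aliquots were quenched in cold acetonitrile/MeOH/H2O at 0, 7, 15, 30 and 60 min and analysed by HPLC/MS/MS.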

hTRPV3 [5] = target: T1, hTRPV3; test: FLIPR Assay (calcium flux, HEK293 cells stably expressing TRPV3); format: cell-based
Method: In Tables 3 and 4, Phase 1 refers to Phase 1 current for human (h) TRPV3 or rat (r) TRPV3, and Phase 2 refers to Phase 2 current for human (h) TRPV3 or rat (r) TRPV3. The hTRPV3 and rTRPV3 assays were performed as described herein. hERG refers to the inhibition the human ERG (hERG) channel. NaV1.5, refers to the pore forming aL-subunit of the voltage-dependent cardiac Na(+) channel and is an integral membrane protein involved in the initiation and conduction of action potentials. hTRPV3 HAMA IC50 refers to the IC50 of TRPV3 cells stably expressed in TRex-293 cells. Solubility Ringer refers to the compounds' solubility in Ringer's solution. LM T1/2 refers to liver microsome half-lives in either rat or human liver microsomes. FLIPR IC50 refers to the IC50 of the test compounds against recombinant hTRPV3 cells.
The cells were treated with IBSS and 20 mM HEPES adjusted to pH 7.4 in the presence of the fluorescent calcium indicator e.g. Fluo-4AM (5 uM) and the plates were incubated at 37° C. and […] for approximately 1 hour and cooled to room temperature. […] Relative Fluorescence Units (RFU) were measured for each response for signal maximum minus minimum during approximately 90 seconds after addition.

[6] = hTRPV3 HAMA IC50 (nM) (30 min), 30 min
[7] = Phase 1 current, inward, whole-cell patch clamp, read-out: hTRPV3 Patch P1 Inwd
[8] = Phase 1 current, read-out: hTRPV3 (nM) (Phase 1)
[9] = hTRPV3 HAMA IC50 (nM) (5 min), 5 min

T1 sequence (Q8NET8 whole entry): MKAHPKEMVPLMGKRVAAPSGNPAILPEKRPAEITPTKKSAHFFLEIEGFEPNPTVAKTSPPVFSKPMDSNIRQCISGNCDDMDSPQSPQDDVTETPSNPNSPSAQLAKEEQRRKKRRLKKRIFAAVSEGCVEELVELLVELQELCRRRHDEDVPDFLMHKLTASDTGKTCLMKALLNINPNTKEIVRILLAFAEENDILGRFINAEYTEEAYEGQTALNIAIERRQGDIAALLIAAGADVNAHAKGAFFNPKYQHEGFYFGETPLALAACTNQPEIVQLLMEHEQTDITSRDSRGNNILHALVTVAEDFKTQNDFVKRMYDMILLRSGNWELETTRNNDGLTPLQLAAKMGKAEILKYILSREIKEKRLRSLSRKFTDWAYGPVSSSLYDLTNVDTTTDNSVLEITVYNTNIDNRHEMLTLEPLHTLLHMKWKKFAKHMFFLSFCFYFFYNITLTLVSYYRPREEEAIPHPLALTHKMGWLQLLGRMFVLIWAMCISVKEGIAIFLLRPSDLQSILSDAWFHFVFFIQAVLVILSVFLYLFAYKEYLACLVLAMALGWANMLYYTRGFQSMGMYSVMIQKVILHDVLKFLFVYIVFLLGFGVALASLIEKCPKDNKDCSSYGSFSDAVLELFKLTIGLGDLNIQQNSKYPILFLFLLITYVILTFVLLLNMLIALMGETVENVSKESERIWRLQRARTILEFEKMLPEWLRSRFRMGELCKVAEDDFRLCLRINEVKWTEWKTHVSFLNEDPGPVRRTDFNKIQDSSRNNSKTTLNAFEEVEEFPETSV

CCc1ccccc1Oc1ccc(N2CC[C@H](Oc3ncccc3Cl)C2)c(CO)c1 [Compound 1-222, (S)-(2-(3-(3-chloropyridin-2-yloxy)pyrrolidin-1-yl)-5-(2-ethylphenoxy)phenyl)methanol]
hTRPV3 HAMA IC50 (nM) (5 min) (hTRPV3 [1]; 5 min): no fit | IC50 (hTRPV3 [1]; [6]): 1790 nM | Solubility Ringer (nM) [2]: BLQ | IC50 (hTRPV3 [3]; [7]): < 10 nM | IC50 (hTRPV3 [3]; [8]): 3.91 nM | half-life at 1 μM [4]: 18.7 min

OCc1cc(Oc2ccccc2Cl)ccc1N1CC[C@H](Oc2ncccc2Cl)C1 [Compound 1-223, (S)-(5-(2-chlorophenoxy)-2-(3-(3-chloropyridin-2-yloxy)pyrrolidin-1-yl)phenyl)methanol]
hTRPV3 HAMA IC50 (nM) (5 min) (hTRPV3 [1]; 5 min): no fit | IC50 (hTRPV3 [1]; [6]): 14600 nM | Solubility Ringer (nM) [2]: BLQ | IC50 (hTRPV3 [3]; [7]): 10 to 100 nM | IC50 (hTRPV3 [3]; [8]): 39.3 nM | IC50 (hTRPV3 [3]; Phase 2 current, inward, whole-cell patch clamp, read-out: hTRPV3 Patch P2 Inwd): 10 to 100 nM | IC50 (hTRPV3 [3]; Phase 2 current, read-out: hTRPV3 (nM) (Phase 2)): 13.3 nM | half-life at 1 μM [4]: 17.2 min

CCc1ccccc1-c1ccc(CO)c(N2CC[C@H](Oc3ncccc3Cl)C2)c1 [Compound 1-229, (S)-(3-(3-(3-chloropyridin-2-yloxy)pyrrolidin-1-yl)-2′-ethylbiphenyl-4-yl)methanol]
hTRPV3 HAMA IC50 (nM) (5 min) (hTRPV3 [1]; 5 min): no fit (5 min) no fit (30 min) | hTRPV3 HAMA IC50 (nM) (30 min) (hTRPV3 [1]; 30 min): no fit (5 min) no fit (30 min) | solubility at 40 min [2]: 0.16 µM (≈ 0.0654 µg/mL) | IC50 (hTRPV3 [3]; [7]): 10 to 100 nM | IC50 (hTRPV3 [3]; [8]): 69.2 nM | half-life at 1 μM [4]: 4.46 min

OCc1ccc(Oc2ccccc2Cl)cc1N1CC[C@H](Oc2ncccc2Cl)C1 [Compound 1-232, (S)-(4-(2-chlorophenoxy)-2-(3-(3-chloropyridin-2-yloxy)pyrrolidin-1-yl)phenyl)methanol]
hTRPV3 HAMA IC50 (nM) (5 min) (hTRPV3 [1]; 5 min): no fit (5 min) no fit (30 min) | hTRPV3 HAMA IC50 (nM) (30 min) (hTRPV3 [1]; 30 min): no fit (5 min) no fit (30 min) | solubility at 40 min [2]: 0.25 µM (≈ 0.108 µg/mL) | IC50 (hTRPV3 [3]; [7]): 10 to 100 nM | IC50 (hTRPV3 [3]; [8]): ~72.5 nM | half-life at 1 μM [4]: 5.87 min

CCc1ccccc1Oc1ccc(CO)c(N2CC[C@H](Oc3ncccc3Cl)C2)c1 [Compound 1-233, (S)-(2-(3-(3-chloropyridin-2-yloxy)pyrrolidin-1-yl)-4-(2-ethylphenoxy)phenyl)methanol]
hTRPV3 HAMA IC50 (nM) (5 min) (hTRPV3 [1]; 5 min): no fit | IC50 (hTRPV3 [1]; [6]): > 20000 nM | Solubility Ringer (nM) [2]: BLQ | IC50 (hTRPV3 [3]; [7]): 10 to 100 nM | IC50 (hTRPV3 [3]; [8]): ~21.6 nM | half-life at 1 μM [4]: 10.4 min

Cc1ccccc1Oc1ccc(N2CC[C@H](Oc3ncccc3Cl)C2)c(CCO)c1 [Compound 1-235, (S)-2-(2-(3-(3-chloropyridin-2-yloxy)pyrrolidin-1-yl)-5-(o-tolyloxy)phenyl)ethanol]
IC50 (hTRPV3 [1]; [9]): > 20000 nM | IC50 (hTRPV3 [1]; [6]): 6600 nM | Solubility Ringer (nM) [2]: BLQ | IC50 (hTRPV3 [3]; [7]): 10 to 100 nM | IC50 (hTRPV3 [3]; [8]): 19.9 nM | half-life at 1 μM [4]: 21.9 min

COc1ccccc1Oc1ccc(N2CC[C@H](Oc3ncccc3Cl)C2)c(CCO)c1 [Compound 1-237, (S)-2-(2-(3-(3-chloropyridin-2-yloxy)pyrrolidin-1-yl)-5-(2-methoxyphenoxy)phenyl)ethanol]
IC50 (hTRPV3 [1]; [9]): > 20000 nM | IC50 (hTRPV3 [1]; [6]): 19800 nM | solubility at 40 min [2]: ~1.5 µM (≈ 0.661 µg/mL) | IC50 (hTRPV3 [3]; [7]): 100 to 1000 nM | IC50 (hTRPV3 [3]; [8]): 251 nM | half-life at 1 μM [4]: 8.33 min

Cc1ccccc1Oc1ccc(CO)c(N2CC[C@H](Oc3ncccc3Cl)C2)c1 [Compound 1-241, (S)-(2-(3-(3-chloropyridin-2-yloxy)pyrrolidin-1-yl)-4-(o-tolyloxy)phenyl)methanol]
hTRPV3 HAMA IC50 (nM) (5 min) (hTRPV3 [1]; 5 min): no fit (5 min) no fit (30 min) | hTRPV3 HAMA IC50 (nM) (30 min) (hTRPV3 [1]; 30 min): no fit (5 min) no fit (30 min) | solubility at 40 min [2]: ~0.37 µM (≈ 0.152 µg/mL) | IC50 (hTRPV3 [3]; [7]): 10 to 100 nM | IC50 (hTRPV3 [3]; [8]): 18.6 nM | half-life at 1 μM [4]: 6.19 min

Cc1nnc(C(=O)N2CCC(c3ccc(-c4ccccc4C4CC4)cc3CO)C2)o1 (centres unmarked) [Compound 2-129]
IC50 (hTRPV3 [5]; read-out: FLIPR IC50): > 10 µM

O=C(c1cnc(O)cn1)N1CCC(c2ccc(-c3ccccc3C3CC3)cc2CO)C1 (centres unmarked) [Compound 2-130]
IC50 (hTRPV3 [5]; FLIPR IC50 (uM)): 4.8 µM

O=C(c1cncc(O)n1)N1CCC(c2ccc(-c3ccccc3C3CC3)cc2CO)C1 (centres unmarked) [Compound 2-131]
IC50 (hTRPV3 [5]; FLIPR IC50 (uM)): > 10 µM

O=C(c1cc(O)ccn1)N1CCC(c2ccc(-c3ccccc3C3CC3)cc2CO)C1 (centres unmarked) [Compound 2-132]
IC50 (hTRPV3 [5]; read-out: FLIPR IC50): > 10 µM

O=C(c1ccc(O)nn1)N1CCC(c2ccc(-c3ccccc3C3CC3)cc2CO)C1 (centres unmarked) [Compound 2-133]
IC50 (hTRPV3 [5]; read-out: FLIPR IC50): > 10 µM

O=C(c1ccc(CO)cn1)N1CCC(c2ccc(-c3ccccc3C3CC3)cc2CO)C1 (centres unmarked) [Compound 2-134]
IC50 (hTRPV3 [5]; read-out: FLIPR IC50): 9.5 µM

O=C(c1ccc(O)cn1)N1CCC(c2ccc(-c3ccccc3C3CC3)cc2CO)C1 (centres unmarked) [Compound 2-135]
IC50 (hTRPV3 [5]; read-out: FLIPR IC50): 3.09 µM

Cc1nc(C(=O)N2CCC(c3ccc(-c4ccccc4C4CC4)cc3CO)C2)cnc1O (centres unmarked) [Compound 2-136]
IC50 (hTRPV3 [5]; read-out: FLIPR IC50): 5.17 µM

O=C(c1cnc(CO)cn1)N1CCC(c2ccc(-c3ccccc3C3CC3)cc2CO)C1 (centres unmarked) [Compound 2-137]
IC50 (hTRPV3 [5]; read-out: FLIPR IC50): > 10 µM

O=C(c1ccc(CO)nn1)N1CCC(c2ccc(-c3ccccc3C3CC3)cc2CO)C1 (centres unmarked) [Compound 2-138]
IC50 (hTRPV3 [5]; read-out: FLIPR IC50): > 10 µM

O=C(c1ncccc1O)N1CCC(c2ccc(-c3ccccc3C3CC3)cc2CO)C1 (centres unmarked) [Compound 2-139]
IC50 (hTRPV3 [5]; read-out: FLIPR IC50): 7.68 µM

Cc1ccc(C(=O)N2CCC(c3ccc(-c4ccccc4C4CC4)cc3CO)C2)nc1O (centres unmarked) [Compound 2-140]
IC50 (hTRPV3 [5]; read-out: FLIPR IC50): 5.57 µM

COc1ccnc(C(=O)N2CCC(c3ccc(-c4ccccc4C4CC4)cc3CO)C2)c1 (centres unmarked) [Compound 2-141]
IC50 (hTRPV3 [5]; read-out: FLIPR IC50): 4.49 µM

Cc1nnc(C(=O)N2CCC(c3ccc(-c4ccccc4C4CC4)cc3CO)C2)cc1O (centres unmarked) [Compound 2-142]
IC50 (hTRPV3 [5]; read-out: FLIPR IC50): > 10 µM

Cc1nc(C(=O)N2CCC(c3ccc(-c4ccccc4C4CC4)cc3CO)C2)ccc1CO (centres unmarked) [Compound 2-144]
IC50 (hTRPV3 [5]; read-out: FLIPR IC50): 3.27 µM

O=C(c1ncc(Cl)cn1)N1CCC(c2ccc(-c3ccccc3C3CC3)cc2CO)C1 (centres unmarked) [Compound 2-159]
IC50 (hTRPV3 [5]; read-out: FLIPR IC50): 5.18 µM

O=C(c1csc(CO)n1)N1CCC(c2ccc(-c3ccccc3C3CC3)cc2CO)C1 (centres unmarked) [Compound 2-160]
IC50 (hTRPV3 [5]; read-out: FLIPR IC50): > 10 µM

Cn1cnc(C(=O)N2CCC(c3ccc(-c4ccccc4C4CC4)cc3CO)C2)c1 (centres unmarked) [Compound 2-161]
IC50 (hTRPV3 [5]; read-out: FLIPR IC50): 9.52 µM

O=C(c1cc2n(n1)CCC2)N1CCC(c2ccc(-c3ccccc3C3CC3)cc2CO)C1 (centres unmarked) [Compound 2-162]
IC50 (hTRPV3 [5]; read-out: FLIPR IC50): 5.19 µM

Cn1ccc(C(=O)N2CCC(c3ccc(-c4ccccc4C4CC4)cc3CO)C2)n1 (centres unmarked) [Compound 2-163]
IC50 (hTRPV3 [5]; read-out: FLIPR IC50): > 10 µM

Cn1ccnc1C(=O)N1CCC(c2ccc(-c3ccccc3C3CC3)cc2CO)C1 (centres unmarked) [Compound 2-164]
IC50 (hTRPV3 [5]; read-out: FLIPR IC50): > 10 µM

CN1CCc2nc(C(=O)N3CCC(c4ccc(-c5ccccc5C5CC5)cc4CO)C3)sc2C1 (centres unmarked) [Compound 2-165]
IC50 (hTRPV3 [5]; read-out: FLIPR IC50): > 10 µM

CCc1oc(C(=O)N2CCC(c3ccc(-c4ccccc4C4CC4)cc3CO)C2)nc1C (centres unmarked) [Compound 2.145]
IC50 (hTRPV3 [5]; read-out: FLIPR IC50): 4.43 µM

Cc1coc(C(=O)N2CCC(c3ccc(-c4ccccc4C4CC4)cc3CO)C2)n1 (centres unmarked) [Compound 2.146]
IC50 (hTRPV3 [5]; read-out: FLIPR IC50): 5.95 µM

Cc1ocnc1C(=O)N1CCC(c2ccc(-c3ccccc3C3CC3)cc2CO)C1 (centres unmarked) [Compound 2.148]
IC50 (hTRPV3 [5]; read-out: FLIPR IC50): 2.93 µM

(S)-(2′-chloro-4-(3-(5-(trifluoromethyl)pyridin-2-yloxy)pyrrolidin-1-yl)biphenyl-3-yl)methanol [Compound 1-132]
hTRPV3 HAMA IC50 (nM) (5 min) (hTRPV3 [1]; 5 min): no fit (5 min) | Solubility Ringer (nM) [2]: BLQ | IC50 (hTRPV3 [3]; [7]): 10 to 100 nM | IC50 (hTRPV3 [3]; [8]): 32 nM | LM T1/2 (min) (rat) ([4]; 1 μM): 54.1 (rat) min
